≈ marks a conversion by molar mass, not a printed value. Calls of active or inactive are those of the source. The rule behind the calls is not given here.
Columns and labels:
[1] = Cmax in Sprague-Dawley rat at 17.5 mg/kg, po measured over 24 hrs by LC-MS analysis; type: ADME, organism-based; design: route oral, dose 17.5 mg/kg, time >24; details: in vivo
[2] = Unbound AUC (0 to infinity) in Sprague-Dawley rat at […], iv by LC-MS analysis; type: ADME, organism-based; details: in vivo, dose 1.6 mg/kg
[3] = Volume of distribution at steady state in Sprague-Dawley rat at […], iv administered as infusion for 10 mins by LC-MS analysis; type: ADME, organism-based; details: in vivo, dose 1.6 mg/kg
[4] = Intrinsic clearance in human pooled liver microsomes assessed per mg protein at 1 uM by LC-MS analysis; type: ADME, Microsome; details: microsomes, 1 µM
[5] = Tmax in Swiss mouse at 20 mg/kg, po administered as single dose via gavage measured over 24 hrs by LC-MS analysis; type: ADME, organism-based; details: in vivo
[6] = Protein binding in Sprague-Dawley rat plasma at […], iv administered as infusion for 10 mins by LC-MS analysis; type: ADME, organism-based; details: dose 1.6 mg/kg, read-out: PPB (converted)
[7] = Oral bioavailability in Sprague-Dawley rat at 17.5 mg/kg measured over 24 hrs by LC-MS analysis; type: ADME, organism-based; details: in vivo
[8] = Solubility of compound in FeSSIF at pH 5 measured after 5 to 6 hrs by HPLC-UV based analysis; type: physicochemical; details: simulated gi fluid, time 5-6 hrs
[9] = Inhibition of N-terminal His6-tagged dog DHODH expressed in Escherichia coli BL21 using L-DHO as substrate and CoQ as co-substrate by DCIP dye based spectrophotometric assay; design: species or system Canis lupus familiaris
Plasmodium falciparum [10] = test: Antiplasmodial activity against Plasmodium falciparum 3D7 infected in po dosed NSG mouse assessed as reduction in parasitemia administered once daily for 4 consecutive days starting from day 3 post-infection and measured 24 hrs post last dose by flow cytometric analysis; type: functional; details: 3D7, po, 96 h, time 4 day
[11] = Unbound AUC (0 to infinity) in Sprague-Dawley rat at 17.5 mg/kg, po measured over 24 hrs by LC-MS analysis; type: ADME, organism-based; details: in vivo
[12] = target: Voltage-gated inwardly rectifying potassium channel KCNH2 (Homo sapiens, UniProt Q12809)
Sequence of Voltage-gated inwardly rectifying potassium channel KCNH2 (Q12809 whole entry, canonical isoform): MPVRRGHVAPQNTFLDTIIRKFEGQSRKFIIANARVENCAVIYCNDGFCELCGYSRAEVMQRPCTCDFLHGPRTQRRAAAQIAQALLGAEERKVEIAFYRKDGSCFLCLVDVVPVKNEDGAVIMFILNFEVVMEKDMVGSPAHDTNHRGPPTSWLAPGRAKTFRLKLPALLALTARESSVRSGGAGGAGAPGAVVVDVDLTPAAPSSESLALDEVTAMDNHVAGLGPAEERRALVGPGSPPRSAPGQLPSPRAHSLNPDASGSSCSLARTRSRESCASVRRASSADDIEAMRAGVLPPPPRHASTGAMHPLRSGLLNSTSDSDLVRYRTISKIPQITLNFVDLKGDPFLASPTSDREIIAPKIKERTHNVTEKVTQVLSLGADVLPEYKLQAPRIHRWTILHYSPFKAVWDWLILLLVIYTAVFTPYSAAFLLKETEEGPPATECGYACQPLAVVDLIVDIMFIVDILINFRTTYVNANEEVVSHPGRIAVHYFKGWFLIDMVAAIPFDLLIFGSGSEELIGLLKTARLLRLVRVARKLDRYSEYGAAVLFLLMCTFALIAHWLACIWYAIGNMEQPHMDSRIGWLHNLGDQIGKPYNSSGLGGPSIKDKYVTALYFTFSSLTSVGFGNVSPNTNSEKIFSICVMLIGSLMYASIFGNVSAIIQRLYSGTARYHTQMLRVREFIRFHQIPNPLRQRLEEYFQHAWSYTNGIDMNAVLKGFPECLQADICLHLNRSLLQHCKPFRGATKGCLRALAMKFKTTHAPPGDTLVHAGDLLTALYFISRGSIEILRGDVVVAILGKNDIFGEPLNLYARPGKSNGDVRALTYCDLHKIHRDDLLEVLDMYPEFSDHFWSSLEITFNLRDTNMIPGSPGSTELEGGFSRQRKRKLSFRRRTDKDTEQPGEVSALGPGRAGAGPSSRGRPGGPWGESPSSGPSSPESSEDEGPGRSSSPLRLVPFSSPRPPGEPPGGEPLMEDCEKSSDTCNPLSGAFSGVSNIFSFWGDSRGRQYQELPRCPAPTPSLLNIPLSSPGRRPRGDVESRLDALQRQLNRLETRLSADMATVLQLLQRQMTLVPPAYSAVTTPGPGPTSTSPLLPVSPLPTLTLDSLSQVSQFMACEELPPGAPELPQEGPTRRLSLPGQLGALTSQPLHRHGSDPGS
Description: Inhibition of human ERG by patch clamp electrophysiology assay

Cytochrome P450 2C8 = target: T1, Cytochrome P450 2C8 (Homo sapiens, UniProt P10632); test: Inhibition of CYP2C8 in human liver microsomes using isoform-specific probe substrates in presence of NADPH-generating system by LC-MS analysis; type: ADME
T1 sequence (P10632 whole entry): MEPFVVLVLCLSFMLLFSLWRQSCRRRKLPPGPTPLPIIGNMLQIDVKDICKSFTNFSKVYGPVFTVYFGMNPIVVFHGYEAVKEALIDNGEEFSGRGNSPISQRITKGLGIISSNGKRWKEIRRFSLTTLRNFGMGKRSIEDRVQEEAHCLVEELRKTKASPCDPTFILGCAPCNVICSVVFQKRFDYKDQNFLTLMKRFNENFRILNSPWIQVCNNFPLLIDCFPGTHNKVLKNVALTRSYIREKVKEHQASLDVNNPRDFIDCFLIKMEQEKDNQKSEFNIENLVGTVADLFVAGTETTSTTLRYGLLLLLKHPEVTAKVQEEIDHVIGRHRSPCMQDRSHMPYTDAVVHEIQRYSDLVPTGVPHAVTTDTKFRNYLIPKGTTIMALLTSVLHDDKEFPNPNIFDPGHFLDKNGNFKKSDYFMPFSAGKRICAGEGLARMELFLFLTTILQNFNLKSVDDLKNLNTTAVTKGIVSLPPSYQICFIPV

[13] = Apparent half-life in rat Sprague-Dawley at […], iv administered as infusion for 10 mins by LC-MS analysis; type: ADME, organism-based; details: in vivo, dose 1.6 mg/kg
[14] = Cmax in Swiss mouse at 20 mg/kg, po administered as single dose via gavage measured over 24 hrs by LC-MS analysis; type: ADME, organism-based; design: route oral, dose 20 mg/kg, time >24; details: in vivo
[15] = AUC (0 to infinity) in Sprague-Dawley rat at […], iv administered as infusion for 10 mins by LC-MS analysis; type: ADME, organism-based; design: route intravenous, time 10 min, dose 1.6 mg/kg; details: in vivo
[16] = Inhibition of yeast DHODH expressed in Plasmodium falciparum; design: species or system Saccharomyces cerevisiae
Plasmodium falciparum [17] = test: Antiplasmodial activity against Plasmodium falciparum 3D7 infected in NSG mouse assessed as blood AUC level require to show 90% reduction in parasitemia administered orally on day 3 post-infection QD for 4 days and measured after 24 hrs post dose by LC-MS/MS analysis; type: functional, organism-based; details: time 4.0 day
[18] = Unbound Cmax in Sprague-Dawley rat at 17.5 mg/kg, po measured over 24 hrs by LC-MS analysis; type: ADME, organism-based; details: in vivo
Cytochrome P450 2C9 = Cytochrome P450 2C9 (Homo sapiens, UniProt P11712); test: Inhibition of CYP2C9 in human liver microsomes using isoform-specific probe substrates in presence of NADPH-generating system by LC-MS analysis; type: ADME
Sequence of Cytochrome P450 2C9 (P11712 whole entry, canonical isoform): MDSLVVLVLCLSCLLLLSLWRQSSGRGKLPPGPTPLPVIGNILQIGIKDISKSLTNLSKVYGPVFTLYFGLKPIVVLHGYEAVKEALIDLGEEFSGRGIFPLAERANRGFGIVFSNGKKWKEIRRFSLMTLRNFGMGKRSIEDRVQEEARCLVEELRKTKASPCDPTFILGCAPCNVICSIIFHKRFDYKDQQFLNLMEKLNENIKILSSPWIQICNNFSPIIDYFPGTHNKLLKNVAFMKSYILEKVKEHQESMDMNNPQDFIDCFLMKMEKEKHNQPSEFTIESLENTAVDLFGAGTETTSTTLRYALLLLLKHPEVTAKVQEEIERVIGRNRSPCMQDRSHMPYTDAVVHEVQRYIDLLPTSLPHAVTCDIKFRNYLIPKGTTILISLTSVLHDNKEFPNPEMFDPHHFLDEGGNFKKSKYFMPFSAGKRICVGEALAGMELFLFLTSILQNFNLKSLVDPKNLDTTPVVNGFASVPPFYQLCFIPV

[19] = Inhibition of N-terminal His6-tagged Plasmodium vivax DHODH expressed in Escherichia coli BL21 using L-DHO as substrate and CoQ as co-substrate by DCIP dye based spectrophotometric assay
[20] = Unbound clearance in Sprague-Dawley rat at […], iv administered as infusion for 10 mins by LC-MS analysis; type: ADME, organism-based; details: in vivo, dose 1.6 mg/kg
Plasmodium falciparum [21] = test: Antimalarial activity against chloroquine, pyrimethamine and cycloguanil resistant Plasmodium falciparum K1; type: functional, organism-based
[22] = Oral bioavailability in Sprague-Dawley rat at 21.3 mg/kg measured over 24 hrs by LC-MS analysis; type: ADME, organism-based; details: in vivo
[23] = AUC (0 to infinity) in Sprague-Dawley rat at 1.8 mg/kg, iv administered as infusion for 10 mins by LC-MS analysis; type: ADME, organism-based; design: route intravenous, time 10 min, dose 1.8 mg/kg; details: in vivo
[24] = Tmax in Sprague-Dawley rat at 21.3 mg/kg, po measured over 24 hrs by LC-MS analysis; type: ADME, organism-based; details: in vivo
[25] = Unbound Cmax in Sprague-Dawley rat at 21.3 mg/kg, po measured over 24 hrs by LC-MS analysis; type: ADME, organism-based; details: in vivo
[26] = Unbound AUC (0 to infinity) in Sprague-Dawley rat at 21.3 mg/kg, po measured over 24 hrs by LC-MS analysis; type: ADME, organism-based; details: in vivo
[27] = Unbound volume of distribution at steady state Sprague-Dawley in rat at 1.8 mg/kg, iv administered as infusion for 10 mins by LC-MS analysis; type: ADME, organism-based; details: in vivo
[28] = Solubility of compound in FeSSIF at pH 5.8 measured after 5 to 6 hrs by HPLC-UV based analysis; type: physicochemical; details: simulated gi fluid, time 5-6 hrs
[29] = Cmax in Sprague-Dawley rat at 21.3 mg/kg, po measured over 24 hrs by LC-MS analysis; type: ADME, organism-based; design: route oral, dose 21.3 mg/kg, time >24; details: in vivo
[30] = Volume of distribution at steady state in Sprague-Dawley rat at 1.8 mg/kg, iv administered as infusion for 10 mins by LC-MS analysis; type: ADME, organism-based; details: in vivo
[31] = Apparent half-life in Sprague-Dawley rat at 1.8 mg/kg, iv administered as infusion for 10 mins by LC-MS analysis; type: ADME, organism-based; details: in vivo, read-out: t1/2(app) (converted)
[32] = Unbound clearance in Sprague-Dawley rat at 1.8 mg/kg, iv administered as infusion for 10 mins by LC-MS analysis; type: ADME, organism-based; details: in vivo
[33] = Unbound AUC (0 to infinity) in Sprague-Dawley rat at 1.8 mg/kg, iv by LC-MS analysis; type: ADME, organism-based; details: in vivo
[34] = AUC (0 to infinity) in Sprague-Dawley rat at 21.3 mg/kg, po measured over 24 hrs by LC-MS analysis; type: ADME, organism-based; design: route oral, dose 21.3 mg/kg, time >24; details: in vivo

## Cc1cc(N[C@H]2CCc3ccc(Cl)cc3C2)n2nc(C(C)(F)F)nc2n1
[1]
  Cmax: 3.3 µM
[2]
  fAUC: 0.12 µM·h
[3]
  Vdss: 6.7 L/kg
[4]
  microsomal intrinsic clearance: < 7 µL/min
[5]
  Tmax: 1 h
[6]
  fraction unbound at 10 min: 0.035
[7]
  bioavailability: 67%
[8]
  solubility: 36 µg/mL (≈ 95.3 µM)
[9]
  IC50: > 100000 nM
Plasmodium falciparum [10]
  ED90: 19 mg/kg
[11]
  fAUC: 0.89 µM·h
[12]
  IC50: 1500 nM
Cytochrome P450 2C8
  IC50: > 20000 nM
[13]
  t1/2(app): 5.9 h
[14]
  Cmax: 5 µM
[15]
  AUC: 3.5 µM·h
[16]
  EC50: 8600 nM
Plasmodium falciparum [17]
  AUCED90: 10.3 µM.hr/day
[18]
  fCmax: 0.12 µM
Cytochrome P450 2C9
  IC50: 2100 nM
[19]
  IC50: 10 nM
[20]
  CL free: 589 mL/min/kg
Plasmodium falciparum [21]
  Activity: Active

## Cc1cc(NC2Cc3cc(F)c(F)cc3C2)n2nc(C(C)(F)F)nc2n1
[22]
  bioavailability: 63%
[23]
  AUC(0-inf): 27.1 µM·h
[24]
  Tmax: 4 h
[25]
  fCmax: 0.72 µM
[4]
  microsomal intrinsic clearance: < 7 µL/min
[26]
  fAUC: 11.7 µM·h
[27]
  fVdss: 47 L/kg
[28]
  solubility: 65 µg/mL (≈ 178 µM)
[29]
  Cmax: 12.5 µM
[30]
  Vdss: 2.7 L/kg
[9]
  IC50: > 100000 nM
Plasmodium falciparum [10]
  ED90: 35 mg/kg
[31]
  half-life: 11.2 h
Plasmodium falciparum [17]
  AUCED90: 137 µM.hr/day
Cytochrome P450 2C9
  IC50: 18500 nM
[32]
  CL free: 52 mL/min/kg
[19]
  IC50: 370 nM
[33]
  fAUC: 1.57 µM·h
[34]
  AUC(0-inf): 202 µM·h
Plasmodium falciparum [21]
  Activity: Active

— ChEMBL document CHEMBL4706474, “Tetrahydro-2-naphthyl and 2-Indanyl Triazolopyrimidines Targeting Plasmodium falciparum Dihydroorotate Dehydrogenase Display Potent and Selective Antimalarial Activity” (J Med Chem, 2016)
